# Reference: patent US8399214B2 (Evonik Degussa GmbH, priority 2005, dated 2013)
# “And” between values parts separate entries of the source, which are not always exact repeats. Equal entries are not always repeated. Where two headings read alike, the source gives them in different places.
# What was measured:
# microorganisms = conditions: gaseous state; cited from earlier work
# C. glutamicum M2014 [1] = assay: Test tube growth in methionine-free medium with canola oil as DMDS delivery system; type: cell-based; conditions: 24 hours at 30° C.
# From the text: (§1) Other possible delivery systems include synthetic oils, organic solvents, chloro-carbons, fluoro-carbons, or chloro-fluoro-carbons.
# [2] = system: C. glutamicum M2014 (parent); assay: Test tube growth in methionine-free medium, DMDS added directly; conditions: M2014; MF + Met 40 mg/l; 36 hours at 30° C.
# From the text: (§2) M2014 was transformed with plasmid pOM86 (FIG. 9) (SEQ ID NO:8) to yield a “Campbell in” strain. The “Campbell in” strain was then “Cambelled out” to yield a “Campbell out” strain named OM63.
# C. glutamicum M2014 [3] = assay: Test tube growth in methionine-free medium with Amberlite XAD4 as DMDS delivery system; conditions: M2014, XAD4
# Protocol: (§3) To this end, test tube experiments using 5 ml of medium were performed on OM63 and M2014.
# (§4) To each test tube 100 μl of a sterile suspension of XAD4 in water (50% v/v) was added.
# [4] = system: C. glutamicum OM246C (ΔmetH, ΔmetE); type: cell-based; conditions: 24 hours at 30° C.
# From the text: as §1
# [5] = system: C. glutamicum OM63 (ΔmetF); type: cell-based; conditions: MF + Met 40 mg/l, 36 hours at 30° C.
# From the text: as §2
# [6] = system: C. glutamicum OM158 (ΔmetF, ΔmetY); conditions: Met 100 mg/ml, XAD4, 60 hours at 30° C.
# Protocol: (§5) A test tube experiment was performed with M2014 derivatives that contain different combinations of deletions of metY, metB, and metF. […] The inoculum was approximately 5×10^3 cells per tube. Cells were grown at 30° C. in a platform shaker for 60 hours, and cell densities were measured at OD600.
# [7] = system: C. glutamicum OM174 (ΔmetF, ΔmetB, ΔmetY); conditions: Met 100 mg/ml, XAD4, 60 hours at 30° C.
# Protocol: as §5
# C. glutamicum M2014 [8] = assay: Test tube growth in methionine-free medium with mineral oil as DMDS delivery system; conditions: MF + Met 100 mg/l, no oil, 24 hours at 30° C.
# From the text: as §1
# [9] = system: C. glutamicum OM101 (ΔmetF, ΔmetB); conditions: Met 100 mg/ml, XAD4, 60 hours at 30° C.
# Protocol: as §5
# [10] = system: C. glutamicum OM246C (ΔmetH, ΔmetE); conditions: OM246C, 24 hours at 30° C.
# From the text: as §1
# [11] = system: C. glutamicum OM63 (ΔmetF)
# Protocol: as §3, §4
# [12] = system: C. glutamicum OM246C (ΔmetE, ΔmetH); type: cell-based; conditions: met 100 mg/l, XAD4, 24 hours at 30° C.
# Protocol: as §4
# [13] = system: C. glutamicum OM101C (ΔmetF, ΔmetB); type: cell-based; conditions: met 100 mg/l, XAD4, 24 hours at 30° C.
# Protocol: as §4
compound,measurement,setting,value
"C[Se][Se]C [DMDSe, dimethyldiselenide]",toxicity to microorganisms,microorganisms,toxic to microorganisms in a gaseous state
"CSCC[C@H](N)C(=O)O [Met, methionine, reference compound]",Optical densities at 600 nm,"C. glutamicum M2014 [1]; MF + Met 100 mg/l, no oil",4.6 and 4.8
same,Optical densities at 600 nm,C. glutamicum M2014 [1]; MF + Met + Canola Oil,3.8 and 3.5
same,Optical densities at 600 nm,[2],5.8
same,Optical densities at 600 nm,"C. glutamicum M2014 [3]; Met 40 mg/l, 42 hours at 30° C.",7.1
same,OD600,"C. glutamicum M2014 [3]; Met 100 mg/ml, 60 hours at 30° C.",2.2 and 2.3
same,Optical densities at 600 nm,"C. glutamicum M2014 [3]; met 100 mg/l, 24 hours at 30° C.",4.4 and 4.7
same,Optical densities at 600 nm,"[4]; MF + Met 100 mg/l, no oil",4.9 and 4.7
same,Optical densities at 600 nm,[4]; MF + Met + Canola Oil,3.7 and 3.0
same,Optical densities at 600 nm,[5],5.2
same,OD600,[6],3.2 and 2.7
same,OD600,[7],1.5 and 1.2
same,Optical densities at 600 nm,C. glutamicum M2014 [8],4.6 and 4.8
same,OD600,[9],1.8
same,Optical densities at 600 nm,"[10]; MF + Met 100 mg/l, no oil",4.9 and 4.7
same,Optical densities at 600 nm,[10]; MF + Met + Mineral Oil,1.5 and 1.8
same,Optical densities at 600 nm,"[11]; Met 40 mg/l, XAD4, 42 hours at 30° C.",4.4
same,OD600,"[11]; Met 100 mg/ml, XAD4, 60 hours at 30° C.",1.6 and 1.9
same,Optical densities at 600 nm,"[11]; met 100 mg/l, XAD4, 24 hours at 30° C.",2.4 and 3.0
same,Optical densities at 600 nm,[12],3.9 and 4.3
same,Optical densities at 600 nm,[13],1.9 and 2.1
